Data on one molecule can be found in patent publication US20040002130A1, “Disruption of PQS synthesis using precursor analogs” (priority 2002, published 2004).

For test [1], the system named is PQS production. Briefly: Effect of methyl anthranilate on PQS production (TLC of culture supernatant extracts, densitometry). In kind it is cell-based, P. aeruginosa strain PAO1. The method, then: Bacteria from frozen stocks were grown overnight on PTSB agar plates (Ohman, et al. (1980) J. Bacteriol. 142:836-842) at 37° C. Isolated colonies were used to inoculate 10 ml of PTSB which was then incubated for 18 hr at 37° C. with vigorous shaking. Cultures were diluted 1:100 into fresh media and grown for 24 hr as above. A 400 μl aliquot of each culture was mixed with 800 μl of acidified ethyl acetate (Pesci, et al. (1999) Proc. Natl. Acad. Sci. USA 96:11229-11234), vortexed vigorously for 30 sec, then centrifuged for 10 min at 16,000×g. The organic phase was transferred to a fresh tube, and the aqueous phase was re-extracted with an additional 800 μl of solvent. The organic phases were combined, dried to completion and the solute was dissolved in 200 μl of a 1:1 mix of acidified ethyl acetate:acetonitrile. An amount of extract derived from 5 μl of culture was loaded onto the TLC plate. TLC was performed with a silica gel 60 F254 TLC plate (EM Science) that had been soaked in 5% KH2PO4 and activated at 100° C. for one hour. […]
P. aeruginosa strain PAO1 was grown in the presence of increasing amounts of methyl anthranilate, and culture supernatants were extracted with ethyl acetate and separated on TLC plates. PQS was visualized under long-wave UV light and photographed to quantify PQS densitometrically. […]

Test [2] concerns P. aeruginosa strain PAO1. Briefly: Growth of cultures in the presence of methyl anthranilate. To be noted: 0, 0.25, 0.5, 1.0, and 1.5 mM methyl anthranilate. In kind it is cell-based. As to the method: P. aeruginosa strain PAO1 was grown in the presence of increasing amounts of methyl anthranilate, and culture supernatants were extracted with ethyl acetate and separated on TLC plates. PQS was visualized under long-wave UV light and photographed to quantify PQS densitometrically. The amount of PQS present in the culture supernatant decreased as the concentration of methyl anthranilated increased, although the growth of the cultures was not affected by the presence of methyl anthranilate at the concentrations used in these experiments (0, 0.25, 0.5, 1.0, and 1.5 mM methyl anthranilate, with approximately 30% PQS being produced at 1.5 mM methyl anthranilate as compared to wild type bacateria).

Consider `COC(=O)c1ccccc1N` [methyl anthranilate], for which the “PQS being produced as compared to wild type bacteria” value in test [1] (1.5 mM methyl anthranilate, strain PAO1 culture supernatant, densitometry of TLC under long-wave UV) is reported as “approximately 30%”. Besides, the “amount of PQS present in the culture supernatant” value in test [1] (increasing methyl anthranilate concentration (0, 0.25, 0.5, 1.0, and 1.5 mM), strain PAO1) is listed as “decreased”. Besides, in test [2], the “growth of the cultures” value is reported as “not affected”.
